Some results are limits rather than exact numbers.

Sequence of Glucagon receptor (Rattus norvegicus, UniProt P30082) (P30082 whole entry): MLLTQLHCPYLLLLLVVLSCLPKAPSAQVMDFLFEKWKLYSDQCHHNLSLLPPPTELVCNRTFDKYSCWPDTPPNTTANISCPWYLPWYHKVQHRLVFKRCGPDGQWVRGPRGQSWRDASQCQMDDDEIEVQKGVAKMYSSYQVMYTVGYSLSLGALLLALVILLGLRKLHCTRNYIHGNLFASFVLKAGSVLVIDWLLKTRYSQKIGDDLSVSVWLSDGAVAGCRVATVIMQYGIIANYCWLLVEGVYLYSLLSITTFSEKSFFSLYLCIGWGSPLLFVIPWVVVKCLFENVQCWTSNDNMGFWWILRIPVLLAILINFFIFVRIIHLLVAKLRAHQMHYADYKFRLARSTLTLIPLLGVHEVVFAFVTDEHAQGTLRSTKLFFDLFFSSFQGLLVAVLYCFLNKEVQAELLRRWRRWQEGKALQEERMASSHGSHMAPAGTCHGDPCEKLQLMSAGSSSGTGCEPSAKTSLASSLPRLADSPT

One data set deals with Glucagon receptor (Homo sapiens, UniProt P47871). In words: In vitro inhibitory activity against human glucagon receptor using […]-labeled glucagon.
Sequence of Glucagon receptor (Homo sapiens, UniProt P47871) (P47871 whole entry): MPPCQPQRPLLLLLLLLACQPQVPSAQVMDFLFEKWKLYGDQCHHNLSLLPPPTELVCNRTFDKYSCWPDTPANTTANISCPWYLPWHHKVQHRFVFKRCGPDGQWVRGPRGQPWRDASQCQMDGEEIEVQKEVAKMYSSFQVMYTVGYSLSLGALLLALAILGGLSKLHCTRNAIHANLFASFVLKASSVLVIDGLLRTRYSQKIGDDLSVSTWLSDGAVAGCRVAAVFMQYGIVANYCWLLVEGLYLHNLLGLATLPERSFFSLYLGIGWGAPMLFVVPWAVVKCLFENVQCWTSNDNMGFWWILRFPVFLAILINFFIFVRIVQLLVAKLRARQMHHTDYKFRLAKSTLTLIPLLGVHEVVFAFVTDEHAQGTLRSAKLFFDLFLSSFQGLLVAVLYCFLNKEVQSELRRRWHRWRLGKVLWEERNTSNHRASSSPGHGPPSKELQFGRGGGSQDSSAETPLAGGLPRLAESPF
What is called IC50 is the concentration that inhibits the measured activity by half. Low readings indicate higher potency, high ones lower potency. Molecule `COc1cc(/C=N/NC(=O)c2ccc(O)c(C#N)c2)cc(OC)c1OCc1ccc(C(C)C)cc1` showed a concentration for half-maximal inhibition (IC50) of 20 nM.
Same read-out and setting: the same measure for `CC(C)c1ccc(Cn2ccc3c(/C=N/NC(=O)c4ccc(O)c(Cl)c4)cccc32)cc1`: 84 nM; for `CCN(CC)C(=O)COc1ccc(/C=N/NC(=O)c2ccc(O)c(Cl)c2)c2ccccc12`: 130 nM; for `COc1ccc(/C=N/NC(=O)c2ccc(O)c(Cl)c2)c2ccccc12`: 870 nM.
Same read-out and setting: the same measure for `COc1cc(/C=N/NC(=O)c2ccc(O)c([N+](=O)[O-])c2)cc(OC)c1OCc1ccc(C(C)C)cc1`: 50 nM; for `COc1cc(/C=N/NC(=O)c2ccc(O)c(O)c2)cc(OC)c1OCc1ccc(C(C)C)cc1`: 2700 nM.
Molecule `COc1cc(/C=N/NC(=O)c2ccc(O)c(Cl)c2Cl)cc(OC)c1OCc1ccc(C(C)C)cc1` showed a half-maximal inhibitory concentration (IC50) of 31 nM.
Same read-out and setting: the value for `COc1cc(/C=N/NS(=O)(=O)c2ccc(O)c(Cl)c2)cc(OC)c1OCc1ccc(C(C)C)cc1` was 78300 nM; that for `COc1cc(/C=N/NC(=O)c2ccc(O)c(F)c2)cc(OC)c1OCc1ccc(C(C)C)cc1` was 110 nM; that for `COc1cc(/C=N/NC(=O)c2ccc(O)c(Cl)c2)cc(OC)c1OCc1ccc(OC(F)(F)F)cc1` was 180 nM.
`COc1cc(CCNC(=N)c2ccc(O)c(Cl)c2)cc(OC)c1OCc1ccc(C(C)C)cc1` had an IC50 of 5200 nM.
On the same count and under the same terms, the value for `COc1cc(/C=N/NC(=O)c2ccc(O)c(Cl)c2)ccc1OCc1ccc(C(C)C)cc1` was 1300 nM; that for `COc1cc(/C=N/NC(=O)c2ccc(O)c(N)c2)cc(OC)c1OCc1ccc(C(C)C)cc1` was 940 nM.
Consider `NC(=O)COc1ccc(/C=N/NC(=O)c2ccc(O)c(Cl)c2)c2ccccc12`, for which half-maximal inhibition (IC50) was put at 1200 nM.
In the case of `COc1cc(/C(C)=N/NC(=O)c2ccc(O)c(Cl)c2)cc(OC)c1OCc1ccc(C(C)C)cc1`, the half-maximal inhibitory concentration (IC50) is greater than 100000 nM.
`CC(C)c1ccc(COc2ccc(/C=N/NC(=O)c3ccc(O)c(Cl)c3)cc2)cc1`: the 50% inhibitory concentration (IC50) came to 1500 nM.
On the same count and under the same terms, the value for `Cc1cc(/C=N/NC(=O)c2ccc(O)c(Cl)c2)cc(C)c1OCc1ccc(C(C)C)cc1` was 330 nM; that for `COC(=O)C(Oc1c(OC)cc(/C=N/NC(=O)c2ccc(O)c(Cl)c2)cc1OC)c1ccccc1` (configuration not stated) was 690 nM.
On the same count and under the same terms, the same measure for `COc1cc(/C=N/NC(=O)c2ccc(O)c(Cl)c2)cc(OC)c1OCc1ccc(F)c(F)c1`: 150 nM; for `COc1cc(/C=N/NC(=O)c2ccc(O)c(F)c2F)cc(OC)c1OCc1ccc(C(C)C)cc1`: 48 nM.
Turning to `COc1cc(CCNC(=O)c2ccc(O)c(Cl)c2)cc(OC)c1OCc1ccc(C(C)C)cc1`, the IC50 was determined as 1900 nM.
`CC(C)(C)c1nc(COc2ccc(/C=N/NC(=O)c3ccc(O)c(Cl)c3)c3ccccc23)no1` had a 50% inhibitory concentration (IC50) of 160 nM.
In turn, `COc1cc(CNNC(=O)c2ccc(O)c(Cl)c2)cc(OC)c1OCc1ccc(C(C)C)cc1` had a concentration for half-maximal inhibition (IC50) of 880 nM. Against the preceding molecule, the IC50 is about 5.5-fold higher.
On the same count and under the same terms, the value for `O=C(N/N=C/c1ccc(OCc2ccc(OC(F)(F)F)cc2)c2ccccc12)c1ccc(O)c(Cl)c1` was 58 nM; that for `COc1cc(/C=N/NC(=O)c2ccc(O)c(Cl)c2)cc(C(=O)O)c1OCc1ccc(C(C)C)cc1` was 30000 nM; that for `CC(C)c1ccc(COc2ccc(/C=N/NC(=O)c3ccc(O)c(Cl)c3)c3ccccc23)cc1` was 53 nM.
In turn, `COc1cc(/C=N/NC(=O)c2ccc(O)c(Cl)c2)cc(OC)c1OCc1ccc(C(C)C)cc1` showed an IC50 of 23 nM.
Turning to `COc1cc(/C=C/C(=O)Nc2ccc(O)c(Cl)c2)cc(OC)c1OCc1ccc(C(C)C)cc1`, the 50% inhibitory concentration (IC50) came out at 6400 nM.
In the case of `O=C(N/N=C/c1ccc(OCC2CCCCO2)c2ccccc12)c1ccc(O)c(Cl)c1` (configuration not stated), the IC50 was 140 nM. Compared with the last molecule, the IC50 is about 46-fold lower.
The molecule `CC(C)c1ccc(Cn2cc(/C=N/NC(=O)c3ccc(O)c(Cl)c3)c3ccccc32)cc1` came in with an IC50 of 390 nM.
Still for that read-out and setting: the value for `Cc1c(/C=N/NC(=O)c2ccc(O)c(Cl)c2)ccc(OCc2ccc(C(C)C)cc2)c1C` was 740 nM.
On the same count and under the same terms, the value for `COc1cc(/C=N/NC(=O)c2ccc(O)cc2)cc(OC)c1OCc1ccc(C(C)C)cc1` was 690 nM.

Test system in another data set: not listed separately
Nature of the data set: Half life period in vivo. It is filed as ADME, organism-based.
Usually half-life stands for the time in which the quantity being followed falls by half. A lower half-life goes with fast loss. Regarding `COc1cc(/C=N/NC(=O)c2ccc(O)c(C#N)c2)cc(OC)c1OCc1ccc(C(C)C)cc1`, the half-life was 60 min.
Molecule `COc1cc(/C=N/NC(=O)c2ccc(O)c(Cl)c2)cc(OC)c1OCc1ccc(C(C)C)cc1` registered a half-life of 18 min.

The species entered for a further data set is Rattus norvegicus. Nature of the data set: In vitro metabolism in rat liver microsomes was evaluated to determine diminishing of glucuronidation rate. It is filed as ADME.
On to `COc1cc(/C=N/NC(=O)c2ccc(O)c(C#N)c2)cc(OC)c1OCc1ccc(C(C)C)cc1`, for which the Rate is on record as 27 pM min-1 (mg of protein)-1.
Still for that read-out and setting: the same measure for `COc1cc(/C=N/NC(=O)c2ccc(O)c(Cl)c2)cc(OC)c1OCc1ccc(C(C)C)cc1`: 169 pM min-1 (mg of protein)-1.

A further data set concerns the target Glucagon receptor (Rattus norvegicus, UniProt P30082). In words: In vitro inhibitory activity against rat glucagon receptor using […]-labeled glucagon.
For `COc1cc(/C=N/NC(=O)c2ccc(O)c(C#N)c2)cc(OC)c1OCc1ccc(C(C)C)cc1`, inhibition was half-maximal at 1 nM (IC50).
